Literature values as cited in patent publication US8962010B2, “Intravaginal drug delivery devices for the delivery of macromolecules and water-soluble drugs” (Warner Chilcott Company, LLC, priority 2007, dated 2015).

Conditions: pH 5

water solubility: more than 20 % w/w
SMILES: CCN(Cc1cccc(S(=O)(=O)[O-])c1)c1ccc(C(=C2C=CC(=[N+](CC)Cc3cccc(S(=O)(=O)[O-])c3)C=C2)c2ccccc2S(=O)(=O)[O-])cc1.[Na+].[Na+] [Erioglaucine]
